Tests used:
[1] = test system: peripheral lymphocytes; test: Evaluation of reduction in peripheral blood lymphocyte count; format: in vivo; conditions: 3 h; rat, oral; dose required to reduce the lymphocyte count by 50% in three hours from the administration
Description: Evaluation of Reduction in Peripheral Blood Lymphocyte count
A compound or a solvent was orally administered to a rat. When 3, 6, 24, 48, and 72 hours had elapsed since the administration of compound, blood was withdrawn from its tail vein. All the blood samples were analyzed hematologically. The total count of peripheral lymphocytes was measured by using an auto-analyzer (Sysmex 2000Xi). The effect of each compound to the total count of peripheral lymphocytes was evaluated by using three or more rats in one group. The reduction in lymphocyte count caused by the administration of compound was compared with that caused by the administration of solvent to a rat group. Namely, the average lymphocyte count of a solvent-administered group was set to 100%, and a control value (%) was calculated from the average lymphocyte count of a compound-administered group. An ED50 value, that is, a dosed amount of the compound required to reduce the lymphocyte count by 50% in three hours from the administration was calculated from the dosed amount of the compound and the control value (%).

[2] = target: T1, S1P1 receptor (Homo sapiens, UniProt P21453); test: 35S-GTPγS binding assay using membrane preparation of CHO cell stably expressing S1P1 receptor; format: biochemical; conditions: agonist activity
T1 construct: expressed in transfected cells; membrane preparation
T1 sequence (P21453 whole entry): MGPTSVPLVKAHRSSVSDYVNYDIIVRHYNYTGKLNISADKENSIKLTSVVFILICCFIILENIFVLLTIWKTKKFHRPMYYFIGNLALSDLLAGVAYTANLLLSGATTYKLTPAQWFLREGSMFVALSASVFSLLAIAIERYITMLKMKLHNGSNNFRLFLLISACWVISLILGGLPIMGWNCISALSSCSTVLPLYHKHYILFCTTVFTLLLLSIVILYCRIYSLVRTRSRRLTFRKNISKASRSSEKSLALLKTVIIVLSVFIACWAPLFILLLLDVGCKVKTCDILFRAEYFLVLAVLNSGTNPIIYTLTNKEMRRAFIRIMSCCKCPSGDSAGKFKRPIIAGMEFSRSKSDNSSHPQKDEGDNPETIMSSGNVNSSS
Description: ^35s-GTPγS binding assay using membrane preparation of CHO cell stably expressing S1P1 receptor
A G protein-GTPγS binding test associated with a ligand was performed by using a membrane preparation which was obtained from a CHO cell which stably overexpressed S1P1 receptor. In a 96 well-micro-titer dish, the produced membrane protein and a compound which was diluted with a solvent such as DMSO or sphingosine-1-phosphate in various concentrations was incubated in a solution containing 20 mM of Tris-Cl (pH7.5), 100 mM of NaCl, 10 mM of MgCl2, 5μM of GDP, 0.1% of BSA, and […] of ^35s-GTPγS (specific radioactivity, 1250 Ci mmol). The binding was performed for 1 or more hours at room temperature, and the membrane was harvested on a GF/B filter plate by using a Millipore's MultiScreen Separation System to end the binding. After the filter plate was dried for 30 or more minutes, 25 μL of MicroScint-20 was added to each well, and the binding was measured by using the TopCount.
For the agonist activity of compound, the value of a well which a solvent was added to was set to a control value and compared with an increment of an evaluation compound-added well, so that the increment of each concentration of the compound was obtained. EC50 value was calculated under the definition that the value is an agonist concentration required to provide 50% of the maximum increment thereof. […]

[3] = target: T2, S1P3 receptor (Homo sapiens, UniProt Q99500); test: 35S-GTPγS binding assay using membrane preparation of CHO cell temporarily expressing S1P3 receptor; format: biochemical; conditions: agonist activity, membrane of CHO cell temporarily transfected with S1P3 gene
T2 construct: expressed in transfected cells; host or cells: CHO cells, transient transfection; membrane protein
T2 sequence (Q99500 whole entry): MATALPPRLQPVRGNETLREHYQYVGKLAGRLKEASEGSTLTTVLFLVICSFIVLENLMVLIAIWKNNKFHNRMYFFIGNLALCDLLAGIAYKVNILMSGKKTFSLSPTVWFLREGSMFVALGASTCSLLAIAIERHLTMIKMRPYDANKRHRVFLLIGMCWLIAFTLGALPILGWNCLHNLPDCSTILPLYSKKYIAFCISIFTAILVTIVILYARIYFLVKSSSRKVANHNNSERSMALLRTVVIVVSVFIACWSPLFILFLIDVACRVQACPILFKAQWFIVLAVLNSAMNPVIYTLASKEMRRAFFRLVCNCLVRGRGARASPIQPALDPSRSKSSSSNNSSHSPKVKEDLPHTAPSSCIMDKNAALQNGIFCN
Description: ^35s-GTPγS binding assay using membrane preparation of CHO cell of temporarily expressing S1P3 receptor
A GTPγS binding test associated with S1P3 receptor was performed by using the same method as that of the GTPγS binding test associated with S1P1 receptor. In the test, a membrane protein which was produced from a CHO cell in which S1P3 gene was temporarily transfected was used.
For the agonist activity of compound, the value of a well which a solvent was added to was set to a control value and compared with an increment of an evaluation compound-added well, so that the increment of each concentration of the compound was obtained. EC50 value was calculated under the definition that the value is an agonist concentration required to provide 50% of the highest increment thereof.

[4] = test system: adjuvant arthritis rat; test: Adjuvant-induced arthritis model; format: in vivo; conditions: 504 h, Lewis female rats, oral once daily for 21 days, dose required to suppress swelling of hind paw by 50% on the 21-th day
Description: Adjuvant-Induced Arthritis Model
7-weeks old Lewis female rats are used for evaluation. The volume of a hind paw of a rat was measured. As an adjuvant, 500 μg/100 μL of M. tuberclulosis H37 RA (manufactured by Difco) is subcutaneously injected into the plantar of the left hind paw, so that an adjuvant arthritis rat is produced. A compound which is suspended in a 1% methylcellulose solution is forcibly oral-administered to the stomach by using an oral sonde one-time everyday for 21 days from the injection date of the adjuvant. The evaluation of arthritis is performed by measuring the volume of paw of each tested subject by using PLETHYSMOMETER (manufactured by UGO BASILE) and comparing the measured deta of a compound-administered group with those of a solvent-administered group. Swelling of the plantar portion of hind leg of the solvent-administered group was set to 100%, and a control value (%) was calculated from the swelling of the compound-administered group. An ED50 value, that is, a dosed amount of the compound required to suppress the swelling of the plantar portion of hind paw on the 21-th day from the administration date of the adjuvant by 50% was calculated from the dosed amount of the compound and the control value (%).

Row | Compound | ED50 [1] [mg/kg] | EC50 [2] [nM] | EC50 [3] [nM] | ED50 [4] [mg/kg]
1 | O=C(O)C1CC(NCc2ccc(OCc3cc(-c4ccccc4)c(C(F)(F)F)s3)cc2)C1 (stereo not shown) [Example 6] | 5.1 |  |  | 
2 | CC(C)Cc1ccc(-c2nc(-c3ccc(CNCCC(=O)O)cc3)no2)cc1.Cl [Example 40] | 0.71 | 0.5 |  | 
3 | Cc1cc(CNCCC(=O)O)ccc1-c1noc(-c2ccc(-c3ccccc3C#N)c(C)c2)n1 [Example 145] | 0.46 | 0.2 |  | 
4 | Cl.O=C(O)CCNCc1ccc(-c2noc(-c3ccc(-c4ccccc4)c(C(F)(F)F)c3)n2)cc1 [Example 94] | 0.087 | 0.25 |  | 
5 | Cl.N#Cc1ccccc1-c1ccc(-c2nc(-c3ccc(CNCCC(=O)O)cc3)no2)cc1OC(F)(F)F [Example 106] | 0.5 | 1.2 |  | 
6 | Cl.N#Cc1ccccc1-c1ccc(-c2nc(-c3ccc(CNCCC(=O)O)cc3)no2)cc1C(F)(F)F [Example 93] | 0.64 | 0.48 |  | 
7 | O=C(O)[C@H]1CCC[C@H](NCc2ccc(OCc3cc(-c4ccccc4)c(C(F)(F)F)s3)cc2)C1 [Example 4] |  | 34 | 870 | 
8 | CC(C)Oc1ccc(-c2nc(-c3ccc(CN[C@H]4C[C@H](C(=O)O)C4)cc3)no2)cc1C(F)(F)F [Example 135] | 0.16 | 0.72 |  | 0.21
9 | O=C(O)[C@H]1CC[C@H](NCc2ccc(OCc3cc(-c4ccccc4)c(C(F)(F)F)s3)cc2)C1 [Example 25] |  | 4 | 117 | 
10 | Cc1cc(-c2nc(-c3ccc(CNCCC(=O)O)cc3)no2)ccc1-c1ccccc1C#N.Cl [Example 78] | 0.37 | 0.26 |  | 
11 | Cl.O=C(O)CCNCc1ccc(-c2noc(-c3ccc(-c4ccccc4)c(OC(F)(F)F)c3)n2)cc1 [Example 105] | 0.084 | 0.49 |  | 
12 | Cl.O=C(O)CCNCc1ccc(-c2noc(-c3ccc(CCC(F)(F)F)cc3)n2)cc1 [Example 104] | 0.7 | 2.1 |  | 
13 | Cl.O=C(O)CCNCc1ccc(-c2noc(C3CCC(c4ccccc4)CC3)n2)cc1 (stereo not shown) [Example 61] | 0.53 | 1.5 |  | 
14 | Cl.N#Cc1ccccc1-c1ccc(-c2nc(-c3ccc(CNCCC(=O)O)cc3)no2)cc1C#N [Example 90] | 4.1 | 1.4 |  | 
15 | CC(C)COc1ccc(-c2nc(-c3ccc(CNCCC(=O)O)cc3)no2)cc1C(F)(F)F.Cl [Example 46] | 2.1 | 0.5 |  | 
16 | Cc1cc(-c2nc(-c3ccc(CNCCC(=O)O)cc3)no2)ccc1-c1ccccc1.Cl [Example 54] | 0.44 | 0.34 |  | 0.33
17 | Cc1cc(-c2nc(-c3ccc(CNCCC(=O)O)cc3)no2)ccc1-c1ccoc1.Cl [Example 117] | 0.88 | 0.07 |  | 
18 | Cc1cc(CNC2CC(C(=O)O)C2)ccc1-c1noc(-c2ccc(-c3ccccc3C#N)c(C)c2)n1 (stereo not shown) [Example 147] | 0.72 | 2.4 |  | 

— patent US20080200535A1, “Amine Compounds” (Asahi Kasei Pharma Corporation, priority 2006, published 2008)
